Data on two substances can be found in patent US6593511B1, “Models of chronic and acute inflammatory diseases” (Bioseek, Inc., priority 2000, dated 2003).

One assay relates to scid/scid mice. Kind of assay: Effect of co-factors on disease induction in the scid/scid CD4+/CD25- transfer model. The class given is in vivo, mouse. Conditions: 20 μg s.c. on day one after cell transfer. The method, then:
Induction of chronic skin inflammation. Briefly, splenocytes were collected from 5-10 week old donor mice (Balb/c) and donor population was either enriched for CD4+ and depleted of CD25+ cells, or depleted of CD25+ cells only. The collected cell population was injected subcutaneously (s.c.) into C.B-17/Icr scid/scid mice, aged 4-8 weeks (usually 3×10^5 to 5×10^5 cells per mouse in 200-400 μL). A systemic (s.c., i.p. or i.v.) injection of an immuno-modulating agent was given 24 hours following cell transfer. Alternatively, these co-injections were given at the same time to one week after. The co-injection was, alternatively, repeated every other day or once a week for the entire course of the experiment.
After 24 hours all recipient mice were given a co-injection of 20 μg LPS (or 10 μg SEB) s.c. Disease causing T cells then proliferated and began to induce inflammation over a period of 4 weeks
The thickness of the skin on the ear was measured using a Dyer micrometer. The micrometer was first modified to better perform in the measurement of soft tissue. The contact pads are reduced to 4 mm, and the spring tension is reduced to <3 lbs.
Co-factor injections are important for their mitogenic properties. […]
The effect of different co-factors on disease induction was assessed. […]

In a further assay the test system is psoriatic scid/scid mice. The assay is described as follows: Treatment of established chronic skin inflammation (psoriasis) in scid/scid mice after transfer of CD4+/CD25- T cells and LPS; ear thickness and histology. The assay is classed as in vivo, mouse. From the text:
Mice. Female Balb/c mice (donor mice) were purchased from Jackson Labs (Bar Harbor, Me.) or similar source, and C.B-17/Icr scid/scid (recipient mice) were purchased from Taconic (Germantown, N.Y.) or Charles River. All mice were housed in a specific pathogen free environment and were used between 4-8 wk of age. Mice were housed 2-5 per microisolator. All scid/scid mice were handled with gloves under a class II hood, fed sterile food and water ad libitum, and maintained in sterilized microisolators that are changed twice weekly. Donor mice were housed in conventional cages that were changed weekly.
Induction of chronic skin inflammation. Briefly, splenocytes were collected from 5-10 week old donor mice (Balb/c) and donor population was either enriched for CD4+ and depleted of CD25+ cells, or depleted of CD25+ cells only. The collected cell population was injected subcutaneously (s.c.) into C.B-17/Icr scid/scid mice, aged 4-8 weeks (usually 3×10^5 to 5×10^5 cells per mouse in 200-400 μL). […]
Cell Selection: Balb/c mouse spleens were collected and homogenized by pressing through 100 μ cell strainer (Falcon) and suspended in cold PBS supplemented with 10% FBS. […] The resultant cell quantities were 5-8 million cells per spleen. […]
The thickness of the skin on the ear was measured using a Dyer micrometer. […]

lipopolysaccharide [LPS]: in the assay on scid/scid mice (5/5), the incidence of disease is on record as 100%. This substance also came in with an average ear thickness with scid/scid mice (week 7, n=5 mice, +/- SEM, 30 μm+/−1.2 without co-factor, p=3.6×10^−3) of 36.4 μm.
Regarding methylprednisone, the “skin thickness after treatment” value in the assay on psoriatic scid/scid mice (after 8 days of 40 mg/kg twice/day, p=2.01×10^−6) came out at 22.4 μm. Further, the “skin thickness before treatment” value in the assay on psoriatic scid/scid mice (baseline before 40 mg/kg twice/day for 8 days) was determined as 33.7 μm.
